Measured values taken from patent US6479533B1, “Methods and compositions for the protection of mitochondria” (priority 1997, dated 2002).

Columns and labels:
Type in all cases: cell-based
[1] = tested on: mitochondria in mouse keratinocytes; experiment: MTT assay after UV-B irradiation
Description: Mouse keratinocytes were pretreated with different concentrations of L-ergothioneine (unencapsulated) and then exposed to ultraviolet B radiation (UV-B), the shorter wavelength range of UV light present in sunlight which is responsible for significant photodamage to the skin. The light was generated by a FS20 sunlamp filtered with 2 sheets of Kodacel to eliminate light having a wavelength less than 280 nm.
(§1) This assay measures the specific activity of mitochondria to cleave the tetrazolium ring of the soluble dye MTT [3-(4,5-dimethylthiazol-2-yl)-2,5-diphenyl tetrazolium bromide] to form the insoluble blue formazan form. Living mitochondria metabolize MTT and make the blue formazan; dead mitochondria immediately stop forming blue formazan. In the MTT assay, mammalian cells are pretreated with L-ergothioneine and then treated with the mitochondrial damaging agent, in this example UV-B. MTT is then added and the formation of the blue dye is measured spectrophotometrically.
Table I provides the percent optical density of the formazan blue present relative to unexposed (control) mitochondria in cells for various UV-B levels, expressed as joules per square meter, and L-ergothioneine concentrations.
Mouse keratinocytes were pretreated with L-ergothioneine, both unencapsulated and encapsulated in liposomes (prepared as described below), at a final concentration of 12.5 μM. A control group was not treated with L-ergothioneine. The mouse keratinocytes were then exposed to UV-B as in Example I.
The L-ergothioneine was encapsulated into liposomes composed of phosphatidyl choline, phosphatidyl ethanolamine, oleic acid and cholesteryl hemisuccinate in a ratio of 2:2:1:5. To calculate the concentration of entrapped L-ergothioneine, the liposomes are extracted with chloroform, and the OD258 is measured in the aqueous layer. The concentration of L-ergothioneine is calculated using the ε258 of L-ergothioneine of 14,500. The final concentration of L-ergothioneine in the purified liposome was about 1.1 mM. […] Unencapsulated L-ergothioneine was adjusted to the same concentration by dilution.
The effect of the UV-B on the pretreated and untreated mitochondria was determined by the MTT assay as in Example 1.
Table 3 provides the percent optical density of the formazan blue present in each case relative to unexposed (control) mitochondria in cells for various UV-B levels.

[2] = tested on: mitochondria in mouse keratinocytes; experiment: MTT assay after alloxan exposure
Description: as §1
Mouse keratinocytes were pretreated with various concentrations of L-ergothioneine (unencapsulated) and then exposed to alloxan at various concentrations.
The effect of alloxan on the pretreated mitochondria was determined by the MTT assay as in Example 1.
Table 2 provides the percent optical densities of the formazan blue present relative to unexposed (control) mitochondria in cells for various alloxan concentrations, and L-ergothioneine concentrations.

[3] = tested on: mitochondrial membranes in mouse keratinocytes; experiment: JC-1 assay (fluorescence microscopy) after alloxan
Procedure: Mouse keratinocytes were pretreated with L-ergothioneine (unencapsulated) at 1 mM and then treated with 8 mM alloxan. One day after treatment with L-ergothioneine, the cells were treated for 10 minutes with JC-I and the cells examined by fluorescence microscopy.
The JC-1 assay makes use of the fluorescent dye JC-1 (5,5′, 6,6′-tetrachloro-1, 1′, 3,3′-tetrathylbenzimidazolecarbocyanine iodide) (Molecular Probes Inc., Eugene, OR). This dye immediately and specifically intercalates into mitochondrial membranes. In living, charged membranes the JC-1 dye is maintained in the membrane as a […], and fluoresces green. When the mitochondrial membrane is damaged, aggregation of the JC-1 dye into J-1 aggregates occurs and the fluorescence changes to orange. Orange coloration is then characteristic of mitochondrial membrane damage.

For `C[N+](C)(C)[C@@H](Cc1c[nH]c(=S)[nH]1)C(=O)[O-]` [L-ergothioneine], the “protection of mitochondria from UV-B damage” value ([1]; 12.5 μM, UV-B 100 and 500 J/m^2) was “significant but not complete protection”, the “percent optical density of formazan blue relative to unexposed (control) mitochondria” value ([1]; 0.1 mM L-ergothioneine, UV-B 0 J/m^2) was 100.0% and the “percent optical density of formazan blue relative to unexposed (control) mitochondria” value ([1]; 0.1 mM L-ergothioneine, UV-B 100 J/m^2) was 95.7%. For the same compound, the “percent optical density of formazan blue relative to unexposed (control) mitochondria” value ([1]; 0.1 mM L-ergothioneine, UV-B 200 J/m^2) was 97.0%, the “percent optical density of formazan blue relative to unexposed (control) mitochondria” value ([1]; 0.1 mM L-ergothioneine, UV-B 500 J/m^2) was 91.0% and the “percent optical density of formazan blue relative to unexposed (control) mitochondria” value ([1]; 0.5 mM L-ergothioneine, UV-B 100 J/m^2) was 97.2%. The “percent optical density of formazan blue relative to unexposed (control) mitochondria” value ([1]; 0.5 mM L-ergothioneine, UV-B 200 J/m^2) was 99.4%, the “percent optical density of formazan blue relative to unexposed (control) mitochondria” value ([1]; 0.5 mM L-ergothioneine, UV-B 500 J/m^2) was 90.8% and the “percent optical density of formazan blue relative to unexposed (control) mitochondria” value ([1]; 1 mM L-ergothioneine, UV-B 0 J/m^2) was 100.0%. The “percent optical density of formazan blue relative to unexposed (control) mitochondria” value ([1]; 1 mM L-ergothioneine, UV-B 100 J/m^2) was 97.1%, the “percent optical density of formazan blue relative to unexposed (control) mitochondria” value ([1]; 1 mM L-ergothioneine, UV-B 200 J/m^2) was 103.9% and the “percent optical density of formazan blue relative to unexposed (control) mitochondria” value ([1]; 1 mM L-ergothioneine, UV-B 500 J/m^2) was 96.0%. The mitochondrial viability ([1]; UV-B 100 and 200 J/m^2, all three levels of L-ergothioneine (0.1, 0.5, 1 mM)) was “greater than 95%”, the protection of mitochondria ([1]; highest UV-B dose (500 J/m^2)) was “still protected the mitochondria” and the “percent optical density of formazan blue relative to unexposed (control) mitochondria” value ([1]; unencapsulated, 12.5 μM, UV-B 0 J/m^2) was 100.0%. The “percent optical density of formazan blue relative to unexposed (control) mitochondria” value ([1]; unencapsulated, 12.5 μM, UV-B 100 J/m^2) was 89.9%, the “percent optical density of formazan blue relative to unexposed (control) mitochondria” value ([1]; unencapsulated, 12.5 μM, UV-B 500 J/m^2) was 89.9% and the “concentration at which active (protection from UV-B)” value ([1]; unencapsulated, UV-B 100 and 500 J/m^2) was no more than 12.5 µM. The “percent optical density of formazan blue relative to unexposed (control) mitochondria” value ([2]; 0.1 mM L-ergothioneine, alloxan 0 mM) was 100.0%, the “percent optical density of formazan blue relative to unexposed (control) mitochondria” value ([2]; 0.1 mM L-ergothioneine, alloxan 0.625 mM) was 86.3% and the “percent optical density of formazan blue relative to unexposed (control) mitochondria” value ([2]; 0.1 mM L-ergothioneine, alloxan 1.25 mM) was 80.8%. For the same compound, the “percent optical density of formazan blue relative to unexposed (control) mitochondria” value ([2]; 0.1 mM L-ergothioneine, alloxan 2.5 mM) was 81.1%, the “percent optical density of formazan blue relative to unexposed (control) mitochondria” value ([2]; 0.1 mM L-ergothioneine, alloxan 5 mM) was 73.3% and the “percent optical density of formazan blue relative to unexposed (control) mitochondria” value ([2]; 0.1 mM L-ergothioneine, alloxan 10 mM) was 74.9%. For the same compound, the “percent optical density of formazan blue relative to unexposed (control) mitochondria” value ([2]; 0.1 mM L-ergothioneine, alloxan 20 mM) was 79.1%, the “percent optical density of formazan blue relative to unexposed (control) mitochondria” value ([2]; 0.5 mM L-ergothioneine, alloxan 0 mM) was 100.0% and the “percent optical density of formazan blue relative to unexposed (control) mitochondria” value ([2]; 0.5 mM L-ergothioneine, alloxan 0.625 mM) was 88.3%. For the same compound, the “percent optical density of formazan blue relative to unexposed (control) mitochondria” value ([2]; 0.5 mM L-ergothioneine, alloxan 1.25 mM) was 81.0%, the “percent optical density of formazan blue relative to unexposed (control) mitochondria” value ([2]; 0.5 mM L-ergothioneine, alloxan 2.5 mM) was 81.0% and the “percent optical density of formazan blue relative to unexposed (control) mitochondria” value ([2]; 0.5 mM L-ergothioneine, alloxan 5 mM) was 73.3%. The “percent optical density of formazan blue relative to unexposed (control) mitochondria” value ([2]; 0.5 mM L-ergothioneine, alloxan 10 mM) was 74.1%, the “percent optical density of formazan blue relative to unexposed (control) mitochondria” value ([2]; 0.5 mM L-ergothioneine, alloxan 20 mM) was 78.4% and the “percent optical density of formazan blue relative to unexposed (control) mitochondria” value ([2]; 0.5 mM L-ergothioneine, alloxan 40 mM) was 72.3%. The “percent optical density of formazan blue relative to unexposed (control) mitochondria” value ([2]; 1 mM L-ergothioneine, alloxan 0 mM) was 100.0%, the “percent optical density of formazan blue relative to unexposed (control) mitochondria” value ([2]; 1 mM L-ergothioneine, alloxan 0.625 mM) was 91.2% and the “percent optical density of formazan blue relative to unexposed (control) mitochondria” value ([2]; 1 mM L-ergothioneine, alloxan 1.25 mM) was 86.5%. For the same compound, the “percent optical density of formazan blue relative to unexposed (control) mitochondria” value ([2]; 1 mM L-ergothioneine, alloxan 2.5 mM) was 82.9%, the “percent optical density of formazan blue relative to unexposed (control) mitochondria” value ([2]; 1 mM L-ergothioneine, alloxan 10 mM) was 68.5% and the “percent optical density of formazan blue relative to unexposed (control) mitochondria” value ([2]; 1 mM L-ergothioneine, alloxan 20 mM) was 72.7%. The “percent optical density of formazan blue relative to unexposed (control) mitochondria” value ([2]; 1 mM L-ergothioneine, alloxan 40 mM) was 66.6%, the “protection from oxidative damage by alloxan” value ([2]; dose-responsive portion of the curve (alloxan up to 5 mM)) was “afforded protection from oxidative damage” and the “JC-1 fluorescence colour (orange = mitochondrial membrane damage)” value ([3]; 1 mM L-ergothioneine alone, no alloxan) was “green fluorescence”. The “JC-1 fluorescence colour (orange = mitochondrial membrane damage)” value ([3]; 1 mM L-ergothioneine pretreatment, then 8 mM alloxan) was “much less orange than cells treated with alloxani alone”.
